# “Also recorded” adds a separate entry of the source. Read-outs that look alike come from different tables or passages of the source.
# How the values were obtained:
# Assay type in all cases: cell-based, human
# SCZ astrocytes = experiment: Potassium (86Rb) uptake by schizophrenia-derived astrocytes; conditions: 4 SCZ lines, drug-treated
# Procedure: Potassium uptake Astrocytes were plated onto poly-ornithine- and laminin-coated 24-well plates with 30,000 cells/well. For the potassium uptake assay, astrocytes were incubated with ^86Rb (1.0-3.3 uCi/well) for 15 min, and then they were washed three time with ice-cold artificial cerebrospinal fluid (aCSF, 500 μL/well). For cell lysis, 0.5N NaOH (200 μL/well) was put into each well, which was put into 5 ml cocktail liquid (Ultima Gold, Fisher Scientific, 509050575) and measured by scintillation counter (Beckman Coulter, LS6500), and the results were normalized to both total protein (BCA Protein Assay Kit, Fisher Scientific, 23227) and cell number (Hemocytometer, Fisher Scientific, 02-671-54). […]
# Next, functional K^+ uptake was assessed directly, in cultured SCZ- and CTR-derived astrocytes. […] Astrocytes from 4 different SCZ and 4 different CTR lines were then incubated with ^86Rb, a surrogate monovalent cation for K^+ uptake (Larsen et al., “Contributions of the Na(+)/K(+)-ATPase, NKCC1, and Kir4.1 to Hippocampal K(+) Clearance and Volume Responses,” Glia 62:608-622 (2014), which is hereby incorporated by reference in its entirety), and rubidium uptake measured as a function of both cell number and total protein.
# To test this postulate, lentivirus was used to overexpress REST in CTR glial cells, and K^+ uptake by the transduced cells was assessed.
# [1] = test system: REST-overexpressing CTR astrocytes; experiment: Potassium (86Rb) uptake by CTR astrocytes transduced to over-express REST
# [2] = test system: REST shRNAi-transduced SCZ astrocytes; experiment: Potassium (86Rb) uptake by SCZ astrocytes with REST knockdown
# CTR astrocytes = experiment: Potassium (86Rb) uptake by control-derived astrocytes; conditions: 4 CTR lines, drug-treated
# Procedure: Potassium uptake Astrocytes were plated onto poly-ornithine- and laminin-coated 24-well plates with 30,000 cells/well. For the potassium uptake assay, astrocytes were incubated with ^86Rb (1.0-3.3 uCi/well) for 15 min, and then they were washed three time with ice-cold artificial cerebrospinal fluid (aCSF, 500 μL/well). For cell lysis, 0.5N NaOH (200 μL/well) was put into each well, which was put into 5 ml cocktail liquid (Ultima Gold, Fisher Scientific, 509050575) and measured by scintillation counter (Beckman Coulter, LS6500), and the results were normalized to both total protein (BCA Protein Assay Kit, Fisher Scientific, 23227) and cell number (Hemocytometer, Fisher Scientific, 02-671-54). The aCSF solution contained (in mM) 124 NaCl, 2.5 KCl, 1.75 NaH2PO4, 2 MgCl2, 2 CaCl2, 0.04 Vit.C, 10 glucose and 26 NaHCO3, pH 7.4.
# Next, functional K^+ uptake was assessed directly, in cultured SCZ- and CTR-derived astrocytes. To obtain mature SCZ and CTR astrocyte cultures, CD44-sorted astrocyte-biased progenitors were cultured in base media supplemented with 10% fetal bovine serum (FBS) and 20 ng/ml BMP4 for 3 weeks, so as to potentiate the differentiation of mature, glial fibrillary acidic protein (GFAP)-expressing, fiber-bearing astrocytes (FIGS. 5A-5C). […] Astrocytes from 4 different SCZ and 4 different CTR lines were then incubated with ^86Rb, a surrogate monovalent cation for K^+ uptake (Larsen et al., “Contributions of the Na(+)/K(+)-ATPase, NKCC1, and Kir4.1 to Hippocampal K(+) Clearance and Volume Responses,” Glia 62:608-622 (2014), which is hereby incorporated by reference in its entirety), and rubidium uptake measured as a function of both cell number and total protein.
Compound,K+ uptake by SCZ astrocytes (SCZ astrocytes),"K+ uptake by REST-overexpressing CTR astrocytes ([1]; 86Rb uptake, lentiviral-REST transduced CTR astrocytes, drug-treated)","K+ uptake by SCZ glia with REST knockdown ([2]; 86Rb uptake, REST shRNAi-transduced SCZ astrocytes, drug-treated)",K+ uptake by CTR astrocytes (CTR astrocytes),K+ uptake by REST-overexpressing CTR astrocytes [1],K+ uptake by SCZ glia with REST knockdown [2],K+ uptake by CTR astrocytes (CTR astrocytes; listed as Ouabain)
CCCCNc1cc(C(=O)O)cc(S(N)(=O)=O)c1Oc1ccccc1 [bumetanide],neither ouabain nor bumetanide affected; also recorded: neither affected,Neither ouabain nor bumetanide further decreased,significantly reduced; also recorded: significantly inhibited,significantly inhibited; also recorded: efficiently decreased,,,
C[C@@H]1O[C@@H](O[C@H]2C[C@@H](O)[C@]3(CO)[C@H]4[C@H](O)C[C@]5(C)[C@@H](C6=CC(=O)OC6)CC[C@]5(O)[C@@H]4CC[C@]3(O)C2)[C@H](O)[C@H](O)[C@H]1O [ouabain],neither ouabain nor bumetanide affected; also recorded: neither affected,,,significantly inhibited; also recorded: efficiently decreased,Neither ouabain nor bumetanide further decreased,significantly reduced; also recorded: significantly inhibited,significantly inhibited
"tertiapin (ALCNCNRIIIPHMCWKKCGKK; UniProt P56587 1-21, looked up) [drug which targets Kir (inwardly rectifying K+) channels]",,,,did not,,,

# Reference: patent US12708608B2, “Methods of treating schizophrenia and other neuropsychiatric disorders” (UNIVERSITY OF ROCHESTER, priority 2018, dated 2026)
